{"source": "patent US20140130208A1", "about": "“METHODS AND MEANS TO PRODUCE ABIOTIC STRESS TOLERANT PLANTS” (VIB VZW, priority 2011, published 2014)", "key": {"CDKA": {"system": "CDKA", "experiment": "CDKA activity assay on protein extracted from proliferating third leaves", "format": "in vivo, Arabidopsis thaliana", "method": "(§1) At 9 DAS, when the third leaf is fully proliferating, seedlings were transferred to plates containing control medium or medium supplemented with 25 mM mannitol (Sigma-Aldrich) or 5 μM ACC (Sigma-Aldrich) by gently lifting the nylon mesh with forceps. For the CDKA activity assay the transfer was done at 11 DAS; at this stage, the third leaf is still dividing and can be quickly harvested without the need for RNAlater solution (see below) that would inhibit CDKA activity. All transfers were performed 2-3 h into the day.\nTotal soluble protein was extracted from 50 leaves by adding extraction buffer (Van Leene et al., 2007) to ground samples, followed by two freeze-thaw steps and two centrifugation steps (20,817 g, 10 min, 4° C.), whereby the supernatant was collected each time. Equal amounts of total protein were incubated with p9^CKS1Hs-sepharose beads (De Veylder et al., 1997) and kinase assays were performed as described (De Veylder et al., 1997) with histone H1 as CDK substrate. To correct for the amount of CDKA protein purified by p9^CKS1Hs-sepharose beads, an aliquot of each sample was used for protein gel blot analysis with primary rabbit anti-PSTAIRE antibodies (Santa Cruz) (diluted 1:5000) and a secondary horseradish peroxidase-conjugated donkey anti-rabbit antibodies (GE-Healthcare) (diluted 1:10,000). Proteins were detected by chemiluminescence (Western Lightning Plus ECL, PerkinElmer Life Sciences). CDK activity and CDKA amount were quantified with ImageJ v1.41o. Control samples were arbitrarily set at 100%."}, "[1]": {"system": "CYCB1;1:Dbox-GUS reporter line", "experiment": "CYCB1;1:DBox-GUS staining of mitotic activity in leaf 3", "format": "in vivo, Arabidopsis thaliana", "details": "48 h after transfer to 25 mM mannitol or 5 μM ACC", "method": "Arabidopsis seedlings were germinated and grown on nylon meshes overlaying control medium until 9 days after stratification (DAS), when the third true leaf is fully proliferating (Skirycz et al., 2010), and subsequently transferred to control or mannitol-containing medium (FIGS. 1A to 10). Kinematic analysis was performed, whereby leaves were harvested daily throughout development of leaf 3 (9-20 DAS) and based on drawings of the abaxial epidermis cell number, cell area, number of guard cells and cell division and cell expansion rates were calculated (De Veylder et al., 2001). […] Leaf and plant morphology were not altered by mannitol (FIG. 2C). Cell expansion was also affected by stress and the reduced final leaf area was a combination of fewer and smaller cells (FIG. 2D). The stomatal index, which represents the number of stomata as a fraction of the total number of cells, was reduced as well (FIG. 2E). To learn more about the mechanisms underlying the rapid reduction of cell division upon stress onset, we harvested leaf samples daily after transfer. As a measure of cellular differentiation, the ploidy distribution was examined by flow cytometry. […] In stressed leaves, 4C nuclei started to accumulate approximately one day earlier than in controls at the expense of 2C nuclei (FIG. 3A). […]"}, "[2]": {"system": "Arabidopsis thaliana third true leaf", "experiment": "Ploidy analysis of leaf 3 by flow cytometry (endoreduplication onset)", "format": "in vivo", "details": "transfer at 9 DAS to 25 mM mannitol or 5 μM ACC", "method": "Arabidopsis seedlings were germinated and grown on nylon meshes overlaying control medium until 9 days after stratification (DAS), when the third true leaf is fully proliferating (Skirycz et al., 2010), and subsequently transferred to control or mannitol-containing medium (FIGS. 1A to 10). Kinematic analysis was performed, whereby leaves were harvested daily throughout development of leaf 3 (9-20 DAS) and based on drawings of the abaxial epidermis cell number, cell area, number of guard cells and cell division and cell expansion rates were calculated (De Veylder et al., 2001). […] Leaf and plant morphology were not altered by mannitol (FIG. 2C). Cell expansion was also affected by stress and the reduced final leaf area was a combination of fewer and smaller cells (FIG. 2D). The stomatal index, which represents the number of stomata as a fraction of the total number of cells, was reduced as well (FIG. 2E). To learn more about the mechanisms underlying the rapid reduction of cell division upon stress onset, we harvested leaf samples daily after transfer. […]\nFor flow cytometry analysis, nuclei were extracted by chopping 4-32 leaves with a razor blade in 1 ml of 45 mM MgCl2, 30 mM sodium citrate, 20 mM 3-(N-morpholino)propanesulfonic acid, pH 7, and 1% Triton X-100 (Galbraith et al., 1983). […] The nuclei were analyzed with a CyFlow flow cytometer with the FloMax Software (Partec)."}, "CDKB2;1 and CYCB1;1": {"system": "CDKB2;1 and CYCB1;1", "experiment": "Expression of mitotic cell cycle genes CDKB2;1 and CYCB1;1", "format": "in vivo, Arabidopsis thaliana", "details": "5 μM ACC"}, "[3]": {"system": "Arabidopsis thaliana third true leaf", "experiment": "Growth (kinematic) analysis of the third leaf after transfer of seedlings to mannitol- or ACC-containing medium", "format": "in vivo", "method": "Arabidopsis seedlings were germinated and grown on nylon meshes overlaying control medium until 9 days after stratification (DAS), when the third true leaf is fully proliferating (Skirycz et al., 2010), and subsequently transferred to control or mannitol-containing medium (FIGS. 1A to 10). Kinematic analysis was performed, whereby leaves were harvested daily throughout development of leaf 3 (9-20 DAS) and based on drawings of the abaxial epidermis cell number, cell area, number of guard cells and cell division and cell expansion rates were calculated (De Veylder et al., 2001). […] Leaf and plant morphology were not altered by mannitol (FIG. 2C). Cell expansion was also affected by stress and the reduced final leaf area was a combination of fewer and smaller cells (FIG. 2D). The stomatal index, which represents the number of stomata as a fraction of the total number of cells, was reduced as well (FIG. 2E). To learn more about the mechanisms underlying the rapid reduction of cell division upon stress onset, we harvested leaf samples daily after transfer. As a measure of cellular differentiation, the ploidy distribution was examined by flow cytometry. […] In stressed leaves, 4C nuclei started to accumulate approximately one day earlier than in controls at the expense of 2C nuclei (FIG. 3A). Analogously, the number of 8C nuclei increased sharply at 14 DAS in stressed leaves, but only at 15 DAS in control samples (FIG. 3A). Again, transfer itself had no effect on ploidy levels (not shown). […] This observation was further investigated with a CYCB1;1:Dbox-GUS reporter line. Staining for CYCB1;1:Dbox-GUS activity visualizes cells at the G2-to-M transition, reflecting mitotic activity (Colón-Carmona et al., 1999). The most apparent differences were observed 48 h after transfer. […] While the relative size of the cell proliferation zone was similar in mannitol-treated leaves, the remaining proliferating cells were found in a dispersed pattern throughout this zone. […] Within a few days after transfer, division rates adapted to the new conditions and compensation effects were observed.\nSeedlings of Arabidopsis thaliana (L.) Heyhn. ecotype Columbia-0 (Col-0) were grown in vitro in half-strength Murashige and Skoog medium (Murashige and Skoog, 1962), supplemented with 1% sucrose under a 16-h day (110 μmol m^−2 s^−1) and 8-h night regime. Plates were overlaid with nylon mesh (Prosep, Zaventem, Belgium) of 20 μm pore size to avoid that roots grew into the medium. Depending on the experiment, 32 or 64 seeds were equally distributed on a 150-mm diameter plate. Mutant plants were grown together with their wild-type controls on the same plate.\nas §1\nGrowth analysis was performed on the third true leaf harvested at different time points after transfer. After clearing with 70% ethanol, leaves were mounted in lactic acid on microscopic slides. For each experiment, 8-12 leaves were photographed with a binocular, and epidermal cells (40-300) were drawn for four representative leaves with a DMLB microscope (Leica) fitted with a drawing tubus and a differential interference contrast objective. Photographs of leaves and drawings were used to measure leaf and cell area, respectively, with ImageJ v1.41o (NIH; http://rsb.info.nih.gov/ij/), from which the cell numbers were calculated. The stomatal index was defined as the percentage of stomata per all cells. […]"}, "[4]": {"details": "transfer at 9 DAS to 25 mM mannitol or 5 μM ACC, leaf 3"}}}
{"substance": "1-aminocyclopropane-1-carboxylate [ACC]", "values": [{"measurement": "CDKA activity reduced", "setting": "CDKA; ACC treatment, etr1.3 and ein5.1 mutants", "value": "not"}, {"measurement": "CDKA activity", "setting": "CDKA; ACC treatment, wild-type and ein3.1", "value": "reduced"}, {"measurement": "CDKA activity", "setting": "CDKA; wild type, 10 and 24 h after transfer to 25 mM mannitol or 5 μM ACC", "value": "decreased as early as 10 h after transfer"}, {"measurement": "number of mitotic cells (CYCB1;1:DBox-GUS activity)", "setting": "[1]", "value": "no changes in the number of mitotic cells"}, {"measurement": "endoreduplication onset", "setting": "[2]", "value": "no changes in endoreduplication onset"}, {"measurement": "expression of mitotic cell cycle genes CDKB2;1 and CYCB1;1", "setting": "CDKB2;1 and CYCB1;1", "value": "no difference"}, {"measurement": "ACC-related decrease in leaf area", "setting": "[3]; ein3.1 and eil1 mutants", "value": "comparable to that of the wild-type"}, {"measurement": "ACC-related decrease in leaf area", "setting": "[3]; etr1.3, ein5.1, mkk9 and ein2.5 mutants, versus wild type", "value": "significantly less"}, {"measurement": "cell proliferation rates", "setting": "[3]; [4]", "value": "rapid reduction of cell proliferation rates"}, {"measurement": "stomatal index", "setting": "[3]; [4]", "value": "not affected"}]}
